From patent US8383637B2, “2-amino-quinazoline derivatives useful as inhibitors of β-secretase (BACE)” (Jansssen Pharmaceutica N.V., priority 2004, dated 2013)
Like-named read-outs stand apart in the source and are kept apart here.

Molecular target: T1, β-secretase(BACE) (Homo sapiens, UniProt P56817)
T1 construct: purchased Panvera
Assay: BACE FS1% Inhibition Assay
Format: biochemical
Details: FS1 substrate; for % Inhibition (FS) 10 μM: 10 μM test compound
Outline: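 Human BACE (4 μg/mL working solution) preincubated 20 min at room temperature with compound, then FS1 substrate (300 μg/mL working solution) added and incubated 1 h at room temperature. Percent inhibition calculated at each compound concentration against blank and vehicle controls.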

T1 sequence (P56817 46-501): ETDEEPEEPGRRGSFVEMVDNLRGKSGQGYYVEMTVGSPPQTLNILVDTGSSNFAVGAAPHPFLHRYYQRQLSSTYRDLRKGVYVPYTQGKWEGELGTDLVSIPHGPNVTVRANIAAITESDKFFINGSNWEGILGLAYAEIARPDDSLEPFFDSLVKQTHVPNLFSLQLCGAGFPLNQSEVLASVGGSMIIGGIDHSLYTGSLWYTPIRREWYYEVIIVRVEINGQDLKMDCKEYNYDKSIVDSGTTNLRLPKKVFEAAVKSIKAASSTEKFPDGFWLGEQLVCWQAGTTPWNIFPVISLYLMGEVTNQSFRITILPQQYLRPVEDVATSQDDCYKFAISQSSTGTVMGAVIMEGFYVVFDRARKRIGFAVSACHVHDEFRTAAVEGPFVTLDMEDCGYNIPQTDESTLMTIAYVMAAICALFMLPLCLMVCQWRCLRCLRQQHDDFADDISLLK

| SMILES | % Inhibition (FS) 3 μM (3 μM test compound) [%] | % Inhibition (FS) 0.3 μM (0.3 μM test compound) [%] | % Inhibition (FS) 1 μM (1 μM test compound) [%] | other results |
| --- | --- | --- | --- | --- |
| COc1ccc2c(c1)C(CC(=O)N(C)C1CCCCC1)CC2N1Cc2cc(Oc3ccccc3)ccc2N=C1N (stereo not shown) [Compound 146] | <30 | – | – | % Inhibition (FS) 10 μM: 39% |
| CN(C(=O)c1cccc(CN2Cc3cc(Nc4ccc5c(c4)OCO5)ccc3N=C2N)c1)C1CCCCC1 [Compound 441] | 48 | <30 | 29 | – |
| CC(C)(C)OC(=O)N1CCC(N2Cc3cc(Oc4ccccc4)ccc3N=C2N)CC1 [Compound 499, 4-(2-Amino-6-phenoxy-4H-quinazolin-3-yl)-piperidine-1-carboxylic acid tert-butyl ester] | – | – | – | inhibition at 0.3 µM (0.3 μM test compound, read-out: % Inhibition (FS) 0.3 μM): < 30%; inhibition at 1 µM (1 μM test compound, read-out: % Inhibition (FS) 1 μM): < 30%; inhibition at 3 µM (3 μM test compound, read-out: % Inhibition (FS) 3 μM): < 30% |
| CC(C)N1CCC(N(C)C(=O)CC[C@@H](C2CCCCC2)N2Cc3cc(Oc4ccccc4)ccc3N=C2N)CC1 [Compound 728] | – | – | – | % Inhibition (FS) (0.3 μM test compound): 43%; % Inhibition (FS) (1 μM test compound): 58%; % Inhibition (FS) (3 μM test compound): 97% |
| CC(C)(C)C(=O)NCCN1Cc2cc(-c3ccccc3F)ccc2N=C1N [Compound 646] | 97 | 52 | 72 | – |
| CN(C(=O)CCC(C1CCOCC1)N1Cc2cc(Oc3ccccc3)ccc2N=C1N)C1CCC(C(=O)O)CC1 (stereo not shown) [Compound 743] | – | – | – | % Inhibition (FS) (0.3 μM test compound): 107%; % Inhibition (FS) (1 μM test compound): 125%; % Inhibition (FS) (3 μM test compound): 130% |
| NC1=Nc2ccc(Oc3ccccc3)cc2CN1CCNC(=O)c1ccc(-c2ccccc2)cc1 [Compound 195] | <30 | <30 | <30 | – |
| CCCC(CCC)C(=O)N1CCCC(N2Cc3cc(Oc4ccccc4)ccc3N=C2N)C1 (stereo not shown) [Compound 612] | <30 | <30 | 34 | – |
| NC1=Nc2ccc(Oc3ccccc3)cc2CN1C(CNC(=O)C12CC3CC(CC(C3)C1)C2)C1CCCCC1 (stereo not shown) [Compound 312] | 115 | 74 | 103 | – |
| CN(C(=O)c1cccc(CN2Cc3ccccc3N=C2N)c1)C1CCCCC1 [Compound 801] | – | – | – | inhibition at 0.3 µM (0.3 μM test compound, read-out: % Inhibition (FS)): < 30%; inhibition at 1 µM (1 μM test compound, read-out: % Inhibition (FS)): < 30%; inhibition at 3 µM (3 μM test compound, read-out: % Inhibition (FS)): < 30% |
| CC(C)c1ccccc1Oc1ccc2c(c1)CN(C(CC(=O)NC1CCCCC1)C1CCCCC1)C(N)=N2 (stereo not shown) [Compound 313] | 31 | <30 | <30 | – |
| NC1=Nc2ccc(Oc3ccccc3)cc2CN1C(c1ccccc1)c1cccc(C(=O)N(C2CCCCC2)C2CCCCC2)c1 (stereo not shown) [Compound 132] | 54 | – | – | % Inhibition (FS) 10 μM: 118% |
| CCCCC(CC)C(=O)NCCN1Cc2cc(-c3ccc4ccccc4c3)ccc2N=C1N (stereo not shown) [Compound 669] | – | – | – | % Inhibition (FS) (0.3 μM test compound): <30%; % Inhibition (FS) (1 μM test compound): <30%; % Inhibition (FS) (3 μM test compound): 32% |
| CC(=O)c1ccccc1-c1ccc2c(c1)CN(Cc1cccc(C(=O)N(C)C3CCCCC3)c1)C(N)=N2 [Compound 323] | 45 | <30 | <30 | – |
| CC(C)C(CNC(=O)C12CC3CC(CC(C3)C1)C2)N1Cc2cc(Oc3ccccc3)ccc2N=C1N (stereo not shown) [Compound 562] | 128 | 106 | 118 | – |
| COc1ccccc1Sc1ccc2c(c1)CN(Cc1cccc(C(=O)N(C)C3CCCCC3)c1)C(N)=N2 [Compound 412] | 49 | <30 | <30 | – |
| CCCC=Cc1ccc2c(c1)CN(CCNC(=O)c1cccc(C#N)c1)C(N)=N2 [Compound 568] | <30 | <30 | <30 | – |
| CCCC=Cc1ccc2c(c1)CN(CCNC(=O)C1CCCCC1)C(N)=N2 [Compound 577] | <30 | <30 | <30 | – |
| NC1=Nc2ccc(-c3ccccc3Cl)cc2CN1CCNC(=O)CCC(F)(F)F [Compound 682] | – | – | – | % Inhibition (FS) (0.3 μM test compound): 39%; % Inhibition (FS) (1 μM test compound): 77%; % Inhibition (FS) (3 μM test compound): 97% |
| CC(C)N(C(=O)CCN1Cc2cc(Oc3ccccc3)ccc2N=C1N)C(C)C [Compound 181] | 32 | <30 | <30 | – |
| CC(C)(C)C(=O)NCCN1Cc2cc(-c3cnc4ccccc4c3)ccc2N=C1N [Compound 674] | – | – | – | % Inhibition (FS) (0.3 μM test compound): 36%; % Inhibition (FS) (1 μM test compound): <30%; % Inhibition (FS) (3 μM test compound): 41% |
| COc1ccccc1-c1cc2c(cc1F)CN(CCC(=O)NC1C3CC4CC(C3)CC1C4)C(N)=N2 (stereo not shown) [Compound 620] | 37 | <30 | <30 | – |
| CN(C(=O)c1cccc(CN2Cc3cc(Oc4ccccc4CC(N)=O)ccc3N=C2N)c1)C1CCCCC1 [Compound 235] | <30 | <30 | 46 | – |
